ChEMBL document CHEMBL3885881, “DrugMatrix”

Species on record: Rattus norvegicus
Test: DrugMatrix - Regimen: Daily Repeat
Type: toxicity, organism-based, Sprague-Dawley
Set-up: regimen Daily Repeat, gender Male, age 6-8 weeks
Settings: in vivo, po, route oral GAVAGE, vehicle .5 % CMC; for ABSOLUTE BASOPHIL / ABSOLUTE EOSINOPHIL / ABSOLUTE LYMPHOCYTE / ABSOLUTE MONOCYTE / ABSOLUTE SEGMENTED NEUTROPHIL / BASOPHIL / EOSINOPHIL / ERYTHROCYTE COUNT / HEMATOCRIT / HEMOGLOBIN / LEUKOCYTE COUNT / LYMPHOCYTE / MEAN CORPUSCULAR HEMOGLOBIN / MEAN CORPUSCULAR HEMOGLOBIN CONCENTRATION / MEAN CORPUSCULAR VOLUME / MONOCYTE / NEUTROPHIL / NUCLEATED RED BLOOD CELLS / PLATELET COUNT: tissue Blood; for ALANINE AMINOTRANSFERASE / ALBUMIN / ALKALINE PHOSPHATASE / ASPARTATE AMINOTRANSFERASE / BLOOD UREA NITROGEN / CARBON DIOXIDE / CHLORIDE / CHOLESTEROL / CREATINE PHOSPHOKINASE / CREATININE / GLUCOSE / LACTATE DEHYDROGENASE / LIPASE / PHOSPHORUS / POTASSIUM / SODIUM / TOTAL BILIRUBIN / TOTAL PROTEIN / URIC ACID: tissue Plasma
[1] = 12 mg/kg, 72 h, dose level High, time 3 day
[2] = 12 mg/kg, 120 h, dose level High, time 5 day
[3] = […], 72 h, dose 1.2 mg/Kg, dose level Low, time 3 day
[4] = […], 120 h, dose 1.2 mg/Kg, dose level Low, time 5 day

Compound: N[C@@H](Cc1ccc(N(CCCl)CCCl)cc1)C(=O)O
- ABSOLUTE BASOPHIL [1]: 0 CELLS/uL
- ABSOLUTE EOSINOPHIL [1]: 202.33 CELLS/uL
- ABSOLUTE LYMPHOCYTE [1]: 10252.33 CELLS/uL
- ABSOLUTE MONOCYTE [1]: 0 CELLS/uL
- ABSOLUTE SEGMENTED NEUTROPHIL [1]: 1345.33 CELLS/uL
- BASOPHIL [1]: 0%
- EOSINOPHIL [1]: 1.67%
- ERYTHROCYTE COUNT [1]: 5.67 x10E6/uL
- HEMATOCRIT [1]: 35.43%
- HEMOGLOBIN [1]: 13.33 G/DL
- LEUKOCYTE COUNT [1]: 11.8 x10E3/uL
- LYMPHOCYTE [1]: 86.67%
- MEAN CORPUSCULAR HEMOGLOBIN [1]: 23.57 pg
- MEAN CORPUSCULAR HEMOGLOBIN CONCENTRATION [1]: 37.63 G/DL
- MEAN CORPUSCULAR VOLUME [1]: 62.57 fL
- MONOCYTE [1]: 0%
- NEUTROPHIL [1]: 11.67%
- NUCLEATED RED BLOOD CELLS [1]: 0 /100WBC
- PLATELET COUNT [1]: 1376 x10E3/uL
- ALANINE AMINOTRANSFERASE [1]: 52 u/L
- ALBUMIN [1]: 4.27 G/DL
- ALKALINE PHOSPHATASE [1]: 346 u/L
- ASPARTATE AMINOTRANSFERASE [1]: 88.33 u/L
- BLOOD UREA NITROGEN [1]: 15 mg/dL
- CARBON DIOXIDE [1]: 25.67 mmol/L
- CHLORIDE [1]: 108.33 MEQ/L
- CHOLESTEROL [1]: 69.67 mg/dL
- CREATINE PHOSPHOKINASE [1]: 205 u/L
- CREATININE [1]: 0.14 mg/dL
- GLUCOSE [1]: 177 mg/dL
- LACTATE DEHYDROGENASE [1]: 85.33 u/L
- LIPASE [1]: 8.33 u/L
- PHOSPHORUS [1]: 14 mg/dL
- POTASSIUM [1]: 6.75 MEQ/L
- SODIUM [1]: 147.33 MEQ/L
- TOTAL BILIRUBIN [1]: 0.17 mg/dL
- TOTAL PROTEIN [1]: 5.9 G/DL
- URIC ACID [1]: 1.93 mg/dL
- ABSOLUTE BASOPHIL [2]: 0 CELLS/uL
- ABSOLUTE EOSINOPHIL [2]: 270.33 CELLS/uL
- ABSOLUTE LYMPHOCYTE [2]: 13398.33 CELLS/uL
- ABSOLUTE MONOCYTE [2]: 0 CELLS/uL
- ABSOLUTE SEGMENTED NEUTROPHIL [2]: 1364.67 CELLS/uL
- BASOPHIL [2]: 0%
- EOSINOPHIL [2]: 1.67%
- ERYTHROCYTE COUNT [2]: 5.64 x10E6/uL
- HEMATOCRIT [2]: 35.4%
- HEMOGLOBIN [2]: 13.53 G/DL
- LEUKOCYTE COUNT [2]: 15.03 x10E3/uL
- LYMPHOCYTE [2]: 89.33%
- MEAN CORPUSCULAR HEMOGLOBIN [2]: 24.03 pg
- MEAN CORPUSCULAR HEMOGLOBIN CONCENTRATION [2]: 38.23 G/DL
- MEAN CORPUSCULAR VOLUME [2]: 62.83 fL
- MONOCYTE [2]: 0%
- NEUTROPHIL [2]: 9%
- NUCLEATED RED BLOOD CELLS [2]: 0 /100WBC
- PLATELET COUNT [2]: 1253 x10E3/uL
- ALANINE AMINOTRANSFERASE [2]: 43.33 u/L
- ALBUMIN [2]: 4.17 G/DL
- ALKALINE PHOSPHATASE [2]: 352 u/L
- ASPARTATE AMINOTRANSFERASE [2]: 75.67 u/L
- BLOOD UREA NITROGEN [2]: 16 mg/dL
- CARBON DIOXIDE [2]: 26.67 mmol/L
- CHLORIDE [2]: 101.67 MEQ/L
- CHOLESTEROL [2]: 68.67 mg/dL
- CREATINE PHOSPHOKINASE [2]: 312.67 u/L
- CREATININE [2]: 0.24 mg/dL
- GLUCOSE [2]: 170.67 mg/dL
- LACTATE DEHYDROGENASE [2]: 98.33 u/L
- LIPASE [2]: 8 u/L
- PHOSPHORUS [2]: 13.23 mg/dL
- POTASSIUM [2]: 6.07 MEQ/L
- SODIUM [2]: 145.27 MEQ/L
- TOTAL BILIRUBIN [2]: 0.2 mg/dL
- TOTAL PROTEIN [2]: 5.97 G/DL
- URIC ACID [2]: 1.5 mg/dL
- ABSOLUTE BASOPHIL [3]: 0 CELLS/uL
- ABSOLUTE EOSINOPHIL [3]: 212 CELLS/uL
- ABSOLUTE LYMPHOCYTE [3]: 11254.33 CELLS/uL
- ABSOLUTE MONOCYTE [3]: 0 CELLS/uL
- ABSOLUTE SEGMENTED NEUTROPHIL [3]: 1000.33 CELLS/uL
- BASOPHIL [3]: 0%
- EOSINOPHIL [3]: 1.67%
- ERYTHROCYTE COUNT [3]: 5.5 x10E6/uL
- HEMATOCRIT [3]: 35.4%
- HEMOGLOBIN [3]: 13.5 G/DL
- LEUKOCYTE COUNT [3]: 12.47 x10E3/uL
- LYMPHOCYTE [3]: 90.33%
- MEAN CORPUSCULAR HEMOGLOBIN [3]: 24.53 pg
- MEAN CORPUSCULAR HEMOGLOBIN CONCENTRATION [3]: 38.13 G/DL
- MEAN CORPUSCULAR VOLUME [3]: 64.3 fL
- MONOCYTE [3]: 0%
- NEUTROPHIL [3]: 8%
- NUCLEATED RED BLOOD CELLS [3]: 0 /100WBC
- PLATELET COUNT [3]: 1333.67 x10E3/uL
- ALANINE AMINOTRANSFERASE [3]: 50 u/L
- ALBUMIN [3]: 4.43 G/DL
- ALKALINE PHOSPHATASE [3]: 430.67 u/L
- ASPARTATE AMINOTRANSFERASE [3]: 84.33 u/L
- BLOOD UREA NITROGEN [3]: 15.67 mg/dL
- CARBON DIOXIDE [3]: 24 mmol/L
- CHLORIDE [3]: 105.67 MEQ/L
- CHOLESTEROL [3]: 66.67 mg/dL
- CREATINE PHOSPHOKINASE [3]: 180.33 u/L
- CREATININE [3]: 0.21 mg/dL
- GLUCOSE [3]: 171.33 mg/dL
- LACTATE DEHYDROGENASE [3]: 164 u/L
- LIPASE [3]: 8.33 u/L
- PHOSPHORUS [3]: 13.1 mg/dL
- POTASSIUM [3]: 6.13 MEQ/L
- SODIUM [3]: 147.47 MEQ/L
- TOTAL BILIRUBIN [3]: 0.2 mg/dL
- TOTAL PROTEIN [3]: 6.33 G/DL
- URIC ACID [3]: 2.23 mg/dL
- ABSOLUTE BASOPHIL [4]: 0 CELLS/uL
- ABSOLUTE EOSINOPHIL [4]: 46.67 CELLS/uL
- ABSOLUTE LYMPHOCYTE [4]: 6013.67 CELLS/uL
- ABSOLUTE MONOCYTE [4]: 20.33 CELLS/uL
- ABSOLUTE SEGMENTED NEUTROPHIL [4]: 619.33 CELLS/uL
- BASOPHIL [4]: 0%
- EOSINOPHIL [4]: 0.67%
- ERYTHROCYTE COUNT [4]: 5.37 x10E6/uL
- HEMATOCRIT [4]: 34.83%
- HEMOGLOBIN [4]: 13.07 G/DL
- LEUKOCYTE COUNT [4]: 6.7 x10E3/uL
- LYMPHOCYTE [4]: 89.67%
- MEAN CORPUSCULAR HEMOGLOBIN [4]: 24.33 pg
- MEAN CORPUSCULAR HEMOGLOBIN CONCENTRATION [4]: 37.53 G/DL
- MEAN CORPUSCULAR VOLUME [4]: 64.87 fL
- MONOCYTE [4]: 0.33%
- NEUTROPHIL [4]: 9.33%
- NUCLEATED RED BLOOD CELLS [4]: 0 /100WBC
- PLATELET COUNT [4]: 1151 x10E3/uL
- ALANINE AMINOTRANSFERASE [4]: 47 u/L
- ALBUMIN [4]: 4.33 G/DL
- ALKALINE PHOSPHATASE [4]: 273.67 u/L
- ASPARTATE AMINOTRANSFERASE [4]: 74.67 u/L
- BLOOD UREA NITROGEN [4]: 14.33 mg/dL
- CARBON DIOXIDE [4]: 29.33 mmol/L
- CHLORIDE [4]: 101.67 MEQ/L
- CHOLESTEROL [4]: 74.67 mg/dL
- CREATINE PHOSPHOKINASE [4]: 206 u/L
- CREATININE [4]: 0.18 mg/dL
- GLUCOSE [4]: 137 mg/dL
- LACTATE DEHYDROGENASE [4]: 89.33 u/L
- LIPASE [4]: 8.67 u/L
- PHOSPHORUS [4]: 11.6 mg/dL
- POTASSIUM [4]: 5.85 MEQ/L
- SODIUM [4]: 147.57 MEQ/L
- TOTAL BILIRUBIN [4]: 0.2 mg/dL
- TOTAL PROTEIN [4]: 6.17 G/DL
- URIC ACID [4]: 0.8 mg/dL
